This note sets out measurements from ChEMBL document CHEMBL1201862, “PubChem BioAssay data set” (2004).

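How tested: cells in 96-well plates exposed to compound for 48 hours at five concentrations. GI50 is the concentration that inhibits growth by half.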 Activity calls are given as the source filed them. Cut-off read from the data, not from the text of the source: active = GI50 up to about 1.1 µM and inactive = higher.

Common to all, as to assay: DTP human tumour cell line panel, 48 h
Test [1] concerns NCI-H226.
Test [2] relates to KM12.
The test system of test [3] is SNB-19.
In test [4] the test system is UACC-257.
The test system of test [5] is SF-539.
Test [6] concerns TK-10.
The subject of test [7] is OVCAR-3.
Test [8] deals with SW-620.
Test [9] concerns Malme-3M.
In test [10] the test system is HOP-92.
Test [11] concerns 786-0.
Test [12] deals with MOLT-4.
In test [13] the test system is RPMI-8226.
In test [14] the test system is CCRF-CEM.
The test system of test [15] is HCT-116.
Test [16] concerns IGROV-1.
Test [17] relates to K562.
Test [18] has as its system SK-OV-3.
The test system of test [19] is NCI/ADR-RES.
Test [20] deals with CAKI-1.

For orientation: GI50 means the concentration giving 50% growth inhibition. Consider `Cc1sc(N)c(S(=O)(=O)c2ccccc2)c1C`, for which the GI50 is > 100 µM (inactive) in test [1]; > 100 µM (inactive) in [2]; > 100 µM (inactive) in test [3]; > 100 µM (inactive) in test [4]; 5.13 µM (inactive) in [5]; > 100 µM (inactive) in test [6]. Besides, the GI50 in test [7] was 80.5 µM (inactive); in [8], > 100 µM (inactive); in [9], > 100 µM (inactive); in [10], > 100 µM (inactive); in [11], > 100 µM (inactive); in test [12] it was > 100 µM (inactive). The GI50 in test [13], in [14], in test [15], in [16], in test [17] and in test [18] was > 100 µM (inactive) each time. Also, the GI50 in [19] and in [20] was > 100 µM (inactive) each time.
For the molecule `CCN(CC)c1ccc2c(c1)Oc1ccc(N(C(C)=O)c3ccccc3)cc1C21OC(=O)c2ccccc21` (configuration not stated), the GI50 in [1] is > 100 µM (inactive); in test [2], 23 µM (inactive); in test [3] it was > 100 µM (inactive); in [4], > 100 µM (inactive); in test [5] it was > 100 µM (inactive); in [6], > 100 µM (inactive). Besides, the GI50 was > 100 µM (inactive) in test [7]; 47.1 µM (inactive) in test [8]; 53.3 µM (inactive) in test [9]; > 67.3 µM (inactive) in test [10]; > 100 µM (inactive) in test [11]; 16.7 µM (inactive) in test [12]. The GI50 in test [13] is 6.76 µM (inactive); in test [14] it was 21.1 µM (inactive); in test [15], 36.1 µM (inactive); in [16], > 100 µM (inactive); in test [17], 12.6 µM (inactive); in test [18], > 100 µM (inactive). In addition, the figures for the GI50 in test [19] and in [20] were > 61.8 µM (inactive) and > 100 µM (inactive), respectively.
For the molecule `CC(C)NC(=O)OCc1c(COC(=O)NC(C)C)c(-c2cc[n+](COC(=O)Cc3ccccc3)cc2)n2c1CCC2`, the GI50 in [1], in test [2], in test [3], in [4], in test [5] and in [6] was > 100 µM (inactive) each time. For the same molecule, the GI50 in test [7] is > 100 µM (inactive); in [8], > 100 µM (inactive); in test [9], > 100 µM (inactive); in [10] it was > 100 µM (inactive); in test [11] it was 46 µM (inactive); in test [12], 47.8 µM (inactive). The GI50 is > 100 µM (inactive) in test [13]; 38.5 µM (inactive) in test [14]; > 100 µM (inactive) in [15]; > 100 µM (inactive) in [16]; > 100 µM (inactive) in test [17]; > 100 µM (inactive) in test [18]. Moreover, the GI50 in test [19] was > 100 µM (inactive); in test [20] it was 37.8 µM (inactive).
Turning to `[N-]=[N+]=CC(=O)OCC(N)C(=O)O` (configuration not stated), the GI50 in [1] was 625 µM (inactive); in [2], 0.406 µM (active); in test [3], 2.88 µM (inactive); in test [4], 95.9 µM (inactive); in test [5], 0.13 µM (active); in test [7], 0.841 µM (active). In addition, the GI50 in test [8] was 0.437 µM (active); in test [9] it was 54.8 µM (inactive); in [10], 82 µM (inactive); in test [12] it was 0.216 µM (active); in test [13] it was 0.528 µM (active); in test [14] it was 0.222 µM (active). Also, the GI50 in test [15] was 0.403 µM (active); in test [16], 1.15 µM (inactive); in test [17], 0.286 µM (active); in [18], 2.42 µM (inactive); in [19] it was 2.95 µM (inactive); in test [20], 5.85 µM (inactive).
On to `COC(=O)c1c(-c2ccccc2)c2sc3ccccc3n2c1N`, for which the GI50 is > 100 µM (inactive) in [1]; 26.1 µM (inactive) in test [2]; 74.3 µM (inactive) in test [3]; > 100 µM (inactive) in [4]; 28.1 µM (inactive) in test [5]; 54.3 µM (inactive) in test [6]. Besides, the GI50 in test [7] is 48.9 µM (inactive); in test [9], 24.9 µM (inactive); in [10], 29.1 µM (inactive); in [11], 29.3 µM (inactive); in test [13] it was > 100 µM (inactive); in test [14], 52.4 µM (inactive). Further, the GI50 in test [15] is 28.6 µM (inactive); in test [16], 58.6 µM (inactive); in test [17] it was > 100 µM (inactive); in test [18] it was > 100 µM (inactive); in [19], > 100 µM (inactive); in test [20], 51.3 µM (inactive).
Turning to `CCOC(=O)c1ccc(N[C@@H]2c3cc4c(cc3C(c3cc(OC)c(O)c(OC)c3)[C@H]3C(=O)OCC32)OCO4)cc1O` (some centres not stated), the GI50 in [1] was 0.256 µM (active); in test [2], 0.579 µM (active); in test [3] it was 0.652 µM (active); in test [4], 2.91 µM (inactive); in [5], 0.685 µM (active); in [7] it was 2.43 µM (inactive). The GI50 is 0.942 µM (active) in test [8]; 0.757 µM (active) in [9]; 1.19 µM (inactive) in test [10]; 0.0207 µM (active) in [12]; 0.94 µM (active) in test [13]; 0.211 µM (active) in [14]. For the same molecule, the GI50 was 0.505 µM (active) in [15]; 2.68 µM (inactive) in test [16]; 0.78 µM (active) in test [17]; 0.738 µM (active) in test [18]; 4.43 µM (inactive) in test [19]; 0.331 µM (active) in [20].
In the case of `Cc1c2ccnc(-c3ccccc3)c2cc2c1[nH]c1ccccc12`, the GI50 in [1] was 2.64 µM (inactive); in test [2] it was 1.45 µM (inactive); in test [3] it was 3.66 µM (inactive); in [4] it was 2.7 µM (inactive); in [5], 2.45 µM (inactive); in test [7] it was 3.4 µM (inactive). Also, the GI50 in test [8] is 2.48 µM (inactive); in [9], 3.37 µM (inactive); in test [10] it was 1.25 µM (inactive); in [12], 2.75 µM (inactive); in test [13], 2.77 µM (inactive); in test [14], 3.26 µM (inactive). The GI50 in test [15] is 2.12 µM (inactive); in test [16], 2.63 µM (inactive); in [17], 1.58 µM (inactive); in test [18], 2.9 µM (inactive); in test [19], 0.492 µM (active); in [20], 0.655 µM (active).
Turning to `O=NN(CCCl)C(=O)NC1CCSc2ccccc21` (configuration not stated), the GI50 is > 100 µM (inactive) in test [1]; > 100 µM (inactive) in test [2]; > 90.2 µM (inactive) in test [3]; > 100 µM (inactive) in test [4]; 27.4 µM (inactive) in test [5]; > 100 µM (inactive) in test [7]. The GI50 in test [8] was > 100 µM (inactive); in test [9], > 100 µM (inactive); in [10], > 100 µM (inactive); in [12], 35.1 µM (inactive); in test [13] it was > 61.4 µM (inactive); in test [14] it was 10.3 µM (inactive). Besides, the GI50 in [15] was > 100 µM (inactive); in [16], > 100 µM (inactive); in test [17] it was > 62.4 µM (inactive); in [18], > 100 µM (inactive); in test [19], > 100 µM (inactive); in test [20], > 100 µM (inactive).
For `O=C(O)c1nc2ccc(C(F)(F)F)cc2[nH]c1=O`, the GI50 in test [1], in test [2], in test [3], in [4], in [5] and in [6] was > 100 µM (inactive) each time. For the same molecule, the GI50 in test [7], in test [8], in [9], in test [10], in test [12] and in test [13] was > 100 µM (inactive) in each case. In addition, the GI50 in [14], in test [15], in [16], in test [17], in test [18] and in [19] was > 100 µM (inactive) in each case. The GI50 in test [20] was > 100 µM (inactive).
`CC(=O)OCC1OC(n2cc(F)c(=O)[nH]c2=O)C(NC(=O)OCc2ccccc2)C(OC(C)=O)C1OC(C)=O` (configuration not stated): the GI50 in test [1], in [2], in test [3], in test [4], in test [5] and in test [7] was > 100 µM (inactive) throughout. Besides, the GI50 in test [8], in test [9], in [10], in [12], in test [13] and in test [14] was > 100 µM (inactive) each time. The GI50 in test [15], in [16], in [17], in test [18], in [19] and in test [20] was > 100 µM (inactive) in each case.
